From PubChem BioAssay AID292 (DTP/NCI, 2004)
Values joined by “and” are separate entries in the source; they are usually repeats but may differ in a detail not shown here. Equal entries are not always repeated. Inconclusive results and toxic doses are left out.

Tested on: B6C3F1 mice, ip Sarcoma M5076, median survival T/C
Assay: NCI In Vivo Anticancer Drug Screen. Data for tumor model Sarcoma M5076 (intraperitoneal) in B6C3F1 mice
Conditions: endpoint: median survival time, schedule: Q04DX004 (ip), higher = longer survival
Procedure, shortened: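 Antitumour effect is judged in tumour-bearing mice by comparing survival after compound dosing against vehicle-only animals, reported as T/C.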

[1] = dose: 25.0 mg/kg/injection, vehicle: saline with Tween-80
[2] = dose: 50.0 mg/kg/injection, vehicle: saline with Tween-80
[3] = dose: 100.0 mg/kg/injection, vehicle: saline with Tween-80
[4] = dose: 200.0 mg/kg/injection, vehicle: saline with Tween-80
[5] = dose: 6.25 mg/kg/injection, vehicle: saline
[6] = dose: 12.5 mg/kg/injection, vehicle: saline
[7] = dose: 25.0 mg/kg/injection, vehicle: saline
[8] = dose: 50.0 mg/kg/injection, vehicle: saline
[9] = dose: 25.0 mg/kg/injection, vehicle: Klucel (hydroxypropylcellulose) (HPC)
[10] = dose: 50.0 mg/kg/injection, vehicle: Klucel (hydroxypropylcellulose) (HPC)
[11] = dose: 100.0 mg/kg/injection, vehicle: Klucel (hydroxypropylcellulose) (HPC)
[12] = dose: 200.0 mg/kg/injection, vehicle: Klucel (hydroxypropylcellulose) (HPC)
[13] = dose: 400.0 mg/kg/injection, vehicle: Klucel (hydroxypropylcellulose) (HPC)
[14] = dose: 37.5 mg/kg/injection, vehicle: Klucel (hydroxypropylcellulose) (HPC)
[15] = dose: 75.0 mg/kg/injection, vehicle: Klucel (hydroxypropylcellulose) (HPC)
[16] = dose: 150.0 mg/kg/injection, vehicle: Klucel (hydroxypropylcellulose) (HPC)
[17] = dose: 400.0 mg/kg/injection, vehicle: saline with Tween-80

Question: How did the T/C [1] turn out when `COc1cc2c(c3c1/c(=N/N(C)C)c1ccccc1n3C)C=CC(C)(C)O2` was run?
Answer: 110 % of control

Question: What about the T/C [2] of the same molecule?
Answer: 105 % of control

Question: What about the T/C [3] of the same molecule?
Answer: 110 % of control

Question: And the T/C [4]?
Answer: 110 % of control

Question: Which T/C (dose: 2.0 mg/kg/injection, vehicle: saline + alcohol) does the source give for `C=C1C(O)C2(O)OCC34C(CC5C(C)=CC(=O)C(O)C5(C)C23)OC(=O)C(OC(=O)C/C=C/CCCCCCCC)C14` (stereo not given) here?
Answer: 96 % of control

Question: And the T/C (dose: 2.88 mg/kg/injection, vehicle: saline + alcohol)?
Answer: 116 % of control

Question: And the T/C (dose: 2.89 mg/kg/injection, vehicle: saline + alcohol)?
Answer: 112 % of control

Question: And the T/C (dose: 4.0 mg/kg/injection, vehicle: saline + alcohol)?
Answer: 107 % of control

Question: What about the T/C (dose: 4.8 mg/kg/injection, vehicle: saline + alcohol) of the same molecule?
Answer: 110 % of control

Question: And the T/C (dose: 13.33 mg/kg/injection, vehicle: saline + alcohol)?
Answer: 124 % of control

Question: What about the T/C (dose: 16.0 mg/kg/injection, vehicle: saline + alcohol) of the same molecule?
Answer: 114 % of control

Question: For `NC(=O)CCC(N)C(=O)O` (stereo not given), which T/C (dose: 3.12 mg/kg/injection, vehicle: saline) is on record?
Answer: 100 % of control

Question: What about the T/C [5] of the same molecule?
Answer: 104 % of control and 105 % of control

Question: And the T/C [6]?
Answer: 97 % of control and 99 % of control

Question: And the T/C [7]?
Answer: 98 % of control and 108 % of control

Question: And the T/C [8]?
Answer: 105 % of control and 111 % of control

Question: What about the T/C (dose: 100.0 mg/kg/injection, vehicle: saline) of the same molecule?
Answer: 103 % of control and 124 % of control

Question: `CCC1=C(c2cccc(OC(C)=O)c2)C(C)c2ccc(OC(C)=O)cc21` (stereo not given) was tested. Which T/C (dose: 6.25 mg/kg/injection, vehicle: Klucel (hydroxypropylcellulose) (HPC)) did it give?
Answer: 93 % of control

Question: What about the T/C (dose: 12.5 mg/kg/injection, vehicle: Klucel (hydroxypropylcellulose) (HPC)) of the same molecule?
Answer: 93 % of control

Question: And the T/C [9]?
Answer: 100 % of control

Question: What about the T/C [10] of the same molecule?
Answer: 116 % of control

Question: And the T/C [11]?
Answer: 105 % of control

Question: And the T/C [12]?
Answer: 91 % of control

Question: For `O=C1CC2(C(=O)N1CN1CCOCC1)c1ccccc1-c1ccccc12`, which T/C [12] is on record?
Answer: 113 % of control

Question: What about the T/C [13] of the same molecule?
Answer: 121 % of control

Question: Which results are given for `CCOC(=O)C(C(=O)OCC)=C(N)C(Cl)(Cl)Cl`?
Answer: T/C [9]: 107 % of control; T/C [10]: 103 % of control; T/C [11]: 101 % of control; T/C [12]: 103 % of control; T/C [13]: 96 % of control

Question: With `CN(C)CCNC1=C(Cl)C(=O)c2ccccc2C1=O` as the molecule, how does the T/C (dose: 1.5 mg/kg/injection, vehicle: saline) read?
Answer: 91 % of control

Question: And the T/C (dose: 3.0 mg/kg/injection, vehicle: saline)?
Answer: 98 % of control

Question: And the T/C (dose: 6.0 mg/kg/injection, vehicle: saline)?
Answer: 89 % of control

Question: What about the T/C (dose: 12.0 mg/kg/injection, vehicle: saline) of the same molecule?
Answer: 105 % of control

Question: And the T/C [6]?
Answer: 106 % of control

Question: With `COc1cccc2c1C(=O)C1=C(C2=O)c2c(O)cc(CO)cc2C(O)C1O` (stereo not given) as the molecule, how does the T/C (dose: 6.25 mg/kg/injection, vehicle: saline with Tween-80) read?
Answer: 100 % of control

Question: And the T/C (dose: 12.5 mg/kg/injection, vehicle: saline with Tween-80)?
Answer: 106 % of control

Question: And the T/C [1]?
Answer: 92 % of control

Question: What about the T/C [2] of the same molecule?
Answer: 101 % of control

Question: How did the T/C (dose: 50.0 mg/kg/injection, vehicle: distilled water + Tween-80) turn out when `CN(C)CCNC1=CC(=O)c2ccccc2C1=O` was run?
Answer: 101 % of control

Question: What about the T/C (dose: 100.0 mg/kg/injection, vehicle: distilled water + Tween-80) of the same molecule?
Answer: 101 % of control

Question: Which results are given for `CC1(C)CC(OS(C)(=O)=O)CC(C)(C)N1O`?
Answer: T/C (dose: 18.75 mg/kg/injection, vehicle: Klucel (hydroxypropylcellulose) (HPC)): 99 % of control; T/C [14]: 100 % of control; T/C [15]: 102 % of control; T/C [16]: 102 % of control

Question: Which results are given for `CC[C@@]1(O)C(=O)OCc2c1cc1n(c2=O)Cc2cc3c(N)cccc3nc2-1`?
Answer: T/C (dose: 0.25 mg/kg/injection, vehicle: saline with Tween-80): 121 % of control; T/C (dose: 1.0 mg/kg/injection, vehicle: saline with Tween-80): 164 % of control and 168 % of control; T/C (dose: 2.0 mg/kg/injection, vehicle: saline with Tween-80): 208 % of control; T/C (dose: 4.0 mg/kg/injection, vehicle: saline with Tween-80): 177 % of control

Question: Which T/C (dose: 28.13 mg/kg/injection, vehicle: Klucel (hydroxypropylcellulose) (HPC)) does the source give for `COc1ccc(CNC(=O)C2C(=O)C(=O)N(Cc3ccc(OC)c(OC)c3)C2=O)cc1OC` (stereo not given) here?
Answer: 95 % of control

Question: And the T/C (dose: 56.25 mg/kg/injection, vehicle: Klucel (hydroxypropylcellulose) (HPC))?
Answer: 100 % of control

Question: What about the T/C (dose: 112.5 mg/kg/injection, vehicle: Klucel (hydroxypropylcellulose) (HPC)) of the same molecule?
Answer: 97 % of control

Question: And the T/C (dose: 225.0 mg/kg/injection, vehicle: Klucel (hydroxypropylcellulose) (HPC))?
Answer: 94 % of control

Question: And the T/C (dose: 450.0 mg/kg/injection, vehicle: Klucel (hydroxypropylcellulose) (HPC))?
Answer: 92 % of control

Question: `COC1=CCC23C(=O)C=CC(=O)C2(C1)C(=O)c1ccccc1C3=O` (stereo not given) was tested. Which T/C (dose: 1.5 mg/kg/injection, vehicle: saline with Tween-80) did it give?
Answer: 110 % of control

Question: And the T/C (dose: 3.0 mg/kg/injection, vehicle: saline with Tween-80)?
Answer: 95 % of control

Question: What about the T/C (dose: 6.0 mg/kg/injection, vehicle: saline with Tween-80) of the same molecule?
Answer: 94 % of control

Question: What about the T/C (dose: 12.0 mg/kg/injection, vehicle: saline with Tween-80) of the same molecule?
Answer: 98 % of control

Question: And the T/C (dose: 24.0 mg/kg/injection, vehicle: saline with Tween-80)?
Answer: 108 % of control

Question: With `O=C(Nc1cccc2ccccc12)C1C(=O)C(=O)N(c2cccc3ccccc23)C1=O` (stereo not given) as the molecule, how does the T/C [14] read?
Answer: 105 % of control

Question: What about the T/C [15] of the same molecule?
Answer: 104 % of control

Question: What about the T/C [16] of the same molecule?
Answer: 88 % of control

Question: And the T/C (dose: 300.0 mg/kg/injection, vehicle: Klucel (hydroxypropylcellulose) (HPC))?
Answer: 91 % of control

Question: For `NC(=O)c1[nH]cnc1O`, which T/C [2] is on record?
Answer: 102 % of control

Question: And the T/C [3]?
Answer: 101 % of control and 105 % of control

Question: And the T/C [4]?
Answer: 100 % of control and 105 % of control

Question: And the T/C [17]?
Answer: 118 % of control

Question: `O=c1[nH]c(=O)n(C2CC(O)C(CO)O2)cc1I` (stereo not given) was tested. Which T/C [3] did it give?
Answer: 103 % of control and 117 % of control

Question: What about the T/C [4] of the same molecule?
Answer: 108 % of control and 118 % of control

Question: What about the T/C [17] of the same molecule?
Answer: 122 % of control

Question: What about the T/C (dose: 800.0 mg/kg/injection, vehicle: saline with Tween-80) of the same molecule?
Answer: 158 % of control

Question: And the T/C (dose: 1600.0 mg/kg/injection, vehicle: saline with Tween-80)?
Answer: 243 % of control

Question: Which results are given for `CC1OC(O[C@H]2/C=C/C=C/C=C/C=C/C=C/C=C/C=C/[C@H](C)[C@@H](O)[C@@H](C)[C@H](C)OC(=O)C[C@H](O)C[C@H](O)CC[C@@H](O)[C@H](O)C[C@H](O)C[C@]3(O)C[C@H](O)[C@@H](C(=O)O)[C@H](C2)O3)C(O)C(N)C1O` (stereo not given in full)?
Answer: T/C (dose: 3.12 mg/kg/injection, vehicle: suspension in saline): 97 % of control; T/C (dose: 6.25 mg/kg/injection, vehicle: suspension in saline): 105 % of control; T/C (dose: 12.5 mg/kg/injection, vehicle: suspension in saline): 100 % of control and 101 % of control; T/C (dose: 25.0 mg/kg/injection, vehicle: suspension in saline): 100 % of control and 109 % of control; T/C (dose: 50.0 mg/kg/injection, vehicle: suspension in saline): 98 % of control and 107 % of control

Question: Which T/C (dose: 25.0 mg/kg/injection, vehicle: DMSO) does the source give for `CCCCNc1ccc2nnc(C)n2n1` here?
Answer: 99 % of control

Question: What about the T/C (dose: 50.0 mg/kg/injection, vehicle: DMSO) of the same molecule?
Answer: 92 % of control and 100 % of control

Question: What about the T/C (dose: 100.0 mg/kg/injection, vehicle: DMSO) of the same molecule?
Answer: 94 % of control and 96 % of control

Question: What about the T/C (dose: 200.0 mg/kg/injection, vehicle: DMSO) of the same molecule?
Answer: 92 % of control and 101 % of control

Question: `NC(=O)c1cc(Cl)nc2nc(Cl)nc(N)c12` was tested. Which T/C [1] did it give?
Answer: 100 % of control

Question: What about the T/C [2] of the same molecule?
Answer: 97 % of control

Question: What about the T/C [3] of the same molecule?
Answer: 99 % of control

Question: And the T/C [4]?
Answer: 96 % of control

Question: What about the T/C [17] of the same molecule?
Answer: 93 % of control

Question: How did the T/C [5] turn out when `CCN(Cc1ccc(Cl)c(Cl)c1)c1ccc2nc(N)nc(N)c2c1C` was run?
Answer: 107 % of control

Question: What about the T/C [6] of the same molecule?
Answer: 107 % of control and 122 % of control

Question: And the T/C [7]?
Answer: 118 % of control (2×) and 123 % of control

Question: What about the T/C [8] of the same molecule?
Answer: 110 % of control
